# Test results taken from a melting point compilation (Tetko et al.; mined from patent text by program, amines drawn as free bases though some values may be those of a salt).
row,melting point,Structure (SMILES)
1,154 °C,O=C(CO)N[C@H]1CC[C@H](CCN2CCC(c3cccc4c3CCO4)CC2)CC1
2,207 to 209 °C,O=C(O)c1cc(-c2ccc(C(F)(F)F)cc2)c2c3c(ccc2c1)OCO3
3,157 to 158 °C,Cc1oc(-c2ccccc2)nc1COc1cc(F)cc(CN(O)C(N)=O)c1
4,39 to 40 °C,COC(=O)CCCCCc1nn(-c2ccc(F)cc2)c2c1CCC2
5,103 to 106 °C,C=C(CCCCC)C(=O)c1ccc(OCC(=O)O)c(Cl)c1Cl
6,67 to 69 °C,"CC1CC=NN1C(=O)c1cccnc1 (single isomer, unassigned; (-))"
7,174 to 175 °C,Cc1nc(N2CCN(CC3CCCCO3)C2=O)sc1C(=O)NCc1cccnc1 (configuration not stated)
8,232 to 240 °C,COC(=O)Nc1cc2c(=O)n(NS(C)(=O)=O)c(=O)[nH]c2cc1C(F)(F)F
9,69 to 71 °C,Cc1cc(Oc2ncc(C(F)(F)F)cc2Cl)nn1C(=O)NC1CCCCC1
10,133 to 136 °C,CCN1CCC(=O)N(c2ccc(Cl)cc2C)C1=S
11,268 to 274 °C,Cc1cccc2cc3c(=O)n(C)cc(C(=O)N[C@@H](C)C(=O)N(C)C)c3nc12
12,144 to 145 °C,CCc1c(-c2ccc(OCc3ccccc3)cc2)cn2cccc(CO)c12
13,193 to 195 °C,Cc1cc(-c2ccc(-c3ccoc3)cc2)n(-c2ccc(S(C)(=O)=O)cc2)c1
14,123 to 125 °C,COC(=O)CNS(=O)(=O)c1ccc(N2CCC(NC[C@H](O)c3ccc(O)c(NS(C)(=O)=O)c3)CC2)cc1
15,155 to 156 °C,Cc1ccc(Nc2c(F)cccc2C(F)(F)F)c(CC(=O)O)c1
16,186 to 187 °C,O=CC(=Cc1ccccc1OCc1ccc(Cl)cc1)C(C=O)=Cc1ccccc1OCc1ccc(Cl)cc1
17,135 to 138 °C,BrCc1cccc2c(-c3ccccc3)c(Br)oc12
18,235 to 236 °C,CC(C)(C(=O)O)C(O)c1ccnc(-c2nc(=O)c3ccccc3s2)c1 (configuration not stated)
19,172 to 173 °C,CCc1[nH]n(C2CCCC2)c2nc(Cc3ccc(OC)cc3)nc(=O)c1-2
20,88 to 90 °C,CCOC(=O)CCCCSc1nc2ccccc2[nH]1
21,253 to 255 °C,CN1C(=O)C2=C(c3ccc([N+](=O)[O-])cc3)OC(=O)C2=C1c1ccccc1
22,146 to 149 °C,CCCCCCC=CCC1CC(=O)N(c2cc(Cc3n[nH]c(=O)c4ccccc34)ccc2F)C1=O (configuration not stated)
23,217 to 218 °C,CCCc1[nH]c2cc(C(=O)O)ccc2c1C(=O)C1CCCCC1

row,melting point,Structure (SMILES)
1,224 to 226 °C,CC(=O)Nc1cc(I)ccc1Sc1ccc([N+](=O)[O-])cc1[N+](=O)[O-]
2,126 to 128 °C,CC(C)CN(C)c1cc(F)cc(C(=O)Nc2ccc(OCCN3CCOCC3)c3ccccc23)c1
3,248 °C,CCC1(C)C(=O)c2c(cc(O)c(Cl)c2Cl)C1c1ccccc1 (configuration not stated)
4,202 to 205 °C,"OC(c1ccncc1)c1c[nH]c(-c2ccc(F)cc2)c1-c1ccncc1 (single isomer, unassigned; (+))"
5,110 to 111 °C,COc1cc(OC)cc(C(=O)NCCCSc2ccncc2)c1
6,222 to 225 °C,O=C(O)c1ccc(-c2coc3ccccc23)cc1
7,54 to 55 °C,CCCCCCCCCCOc1ccc(CO)cc1
8,118 to 121 °C,CC(O)c1ccc(C(O)C(C)(C)C)cc1 (configuration not stated)
9,139 to 140 °C,O=C(O)COCCC1CCCN(c2cnc(-c3ccccc3)c(-c3ccccc3)n2)C1 (configuration not stated)
10,195 to 197 °C,NS(=O)(=O)c1cc(C(=O)O)cc([N+](=O)[O-])c1OCC(F)(F)F
11,220 to 221 °C,COc1ccnc(CCc2nc3cc(-c4ccc(NC(C)=O)cc4)cnc3[nH]2)c1
12,54 to 56 °C,O=c1c(NCCCO)c(Cl)cnn1COCc1ccccc1
13,101 to 104 °C,CCOC(=O)C(=CNC1CC1)C(=O)c1ccc(F)c(Cl)c1F
14,82 to 83 °C,CCc1cc(CNc2cccc3ccccc23)c(OC)nc1C
15,225 to 227 °C,O=C(O)C1CCN(S(=O)(=O)c2ccc(Br)cc2)CC1
16,210 to 211 °C,CC(C(=O)O)c1ccc2c(c1)C(=O)Cc1cc([N+](=O)[O-])ccc1S2 (configuration not stated)
17,81 to 82 °C,CC(C)(C)OC(=O)N1CCC(Oc2ccccc2C(C)(C)C)C1 (configuration not stated)
18,192 to 193 °C,CC(C)(C)OC(=O)Nc1ccnc(NC(=O)NCc2ccccn2)c1
19,85.5 to 87.5 °C,CCOC(=O)C1=C(C)N=C(SCc2ccccc2)N(C(=O)OCC)C1c1ccccc1C(F)(F)F (configuration not stated)
20,207 to 210 °C,Cc1cc(N)cc2c1NC(=O)CC2C (configuration not stated)
21,218 to 222 °C,CNC(=O)NS(=O)(=O)c1ccccc1OCCCl
22,165 to 167 °C,CC(=O)N1CCN(CC2CN=C(c3cc4cc(OCCCS(C)(=O)=O)cc(N(C)S(=O)(=O)c5ccccn5)c4[nH]3)S2)CC1 (configuration not stated)
23,253 to 254 °C,CCOC(=O)c1c(C)nc2[nH]c3ccccc3c2c1N

row,melting point,Structure (SMILES)
1,88 to 90 °C,COc1cc(NC(=O)CCCCCN2CCN(CCO)CC2)c2nccc(C)c2c1
2,198 °C,Cc1csc2c1-n1cccc1C2=NO
3,138 to 139 °C,C[C@H](NC(=O)OCc1ccccc1)C(=O)N1CCC[C@H]1C(=O)Nc1ccccc1
4,94 to 95 °C,CCOC(=O)Cc1sc(Sc2cc(C(=O)OC)nc3ccccc23)nc1C
5,148 to 150 °C,CCOc1ccc(C2=NNC(=O)CC2)c(OCC)c1
6,205 to 220 °C,NC(CS(=O)(=O)c1ccccc1)=NNC(=O)c1cc2ccccc2o1
7,139 °C,CON(C(=O)Cc1nc2ccc(Cl)cc2o1)c1ccccc1
8,168 to 169 °C,CSc1nn2c(=O)cc(CCl)nc2s1
9,191 to 192 °C,O=C(CBr)Nc1ccc(F)cc1C(=O)O
10,153 °C,OC1CSC(Oc2cccnc2Cl)C(O)C1O (configuration not stated)
11,65 to 66 °C,Cn1ncc(Cl)c(NCCCO)c1=O
12,168 to 170 °C,Cc1ccccc1Oc1cccc2c1OC(=O)C2N1C(=O)c2ccccc2C1=O (configuration not stated)
13,104 to 105 °C,COC(=O)c1cc(OC)c(OCc2ccccc2)cc1[N+](=O)[O-]
14,98 to 101 °C,CCOC(=O)/C=C(C)/C=C/C=C(C)/C=C/c1c(C)coc1C
15,191 to 195 °C,COc1cc2c(cc1C(F)(F)F)N(C(=O)Nc1cc(F)cc(-c3cnccc3C)c1)CC2
16,64 °C,N#Cc1cccc(C2OCCO2)n1
17,195 to 198 °C,COc1ccc(CN2CC(c3ccccc3)=C(O)C2=O)cc1
18,123 to 125 °C,C=CCON1C(=O)c2ccc(Cl)c3c(N4CC[C@H](NC(=O)OC(C)(C)C)C4)cc(Cl)c(c23)C1=O
19,167 to 170 °C,COC(=O)COc1ccc(-c2ccc3c(c2)c(C)c(-c2ccccc2)n3Cc2ccccc2)cc1
20,165 to 166 °C,CC(C)(C)c1ccc(N2CCOCC2)c(N)c1
21,176 to 177 °C,COc1ccc2sc(C(=O)Nc3ccc(S(=O)(=O)OC)cc3)c(OC(C)C)c2c1
22,180 to 182 °C,CCc1ccc2c(O)c(CO)cnc2c1
23,272 °C,CS(=O)(=O)c1cnc(-c2nn(Cc3ccccc3F)c3ncccc23)nc1N

row,melting point,Structure (SMILES)
1,206 °C,Cc1cc(C)cc(N(CCCC(N)=O)Cc2ccc3nc(NCCCN4CCOCC4)n(Cc4cccc5c4ncn5C)c3c2)c1
2,233 to 234 °C,CC(C)n1c(-c2ccc(F)cc2)c(/C=C/C(=O)O)c2ccccc2c1=O
3,39 to 40 °C,CN(C)CCCCCCCOc1ccc(-c2nnc(CSCCOc3ccccc3)o2)cc1
4,159 to 161 °C,CC(=O)N1CCc2c(Br)ccc([N+](=O)[O-])c2C1
5,93 to 95 °C,COc1ccc(S(=O)(=O)C2SC(=O)NC2=O)cc1 (configuration not stated)
6,67 to 88 °C,CC(=O)OCCOCn1ccc2c(Cl)ncnc21
7,157 to 158 °C,CC(C)(C)c1ccc(CCCC(O)CC2CCCCC2)cc1NC(=O)CC1c2ccccc2Oc2ccccc21 (configuration not stated)
8,145 to 148 °C,CCCN1C(=O)COc2cc(F)c(-n3nn[nH]c3=O)cc21
9,98 to 99 °C,Cc1nccc(-c2ccccc2)c1/C=C/C=O
10,77 to 78 °C,CN(C)S(=O)(=O)NCC(C)(C)N
11,82 to 84 °C,CCCCCCOC(=O)C(=O)Nc1cc(C#N)cc(NC(=O)C(=O)OCCCCCC)c1Cl
12,170 to 172 °C,O=C(O)Cn1c(=O)c2ccccc2n(CCCN2CCC(OC(c3ccccc3)c3ccccc3)CC2)c1=O
13,188 to 198 °C,COc1ccc(N2Cc3cnc(Nc4ccccc4)nc3N([C@@H](C)CO)C2=O)c(F)c1
14,240 °C,CN(CCC1=C(C#N)C(c2cccc3nonc23)c2c[nH]nc2N1)C(=O)OC(C)(C)C (configuration not stated)
15,191 to 192 °C,CC(C)N(C(=O)c1ccc(CN2CCOc3cnccc32)c(Br)c1)C1CCCCC1
16,115 to 118 °C,COc1cc(C(O)c2cnc(Cl)nc2Cl)cc(OC)c1OC (configuration not stated)
17,198 °C,C/C(=C\c1ccc(C(=O)O)cc1)c1ccc2c(c1)CCCCC2
18,250 to 252 °C,O=C(O)c1cn(-c2ccc(F)cc2F)c2c(F)c(F)c(F)c(F)c2c1=O
19,68 to 69 °C,COc1cc2ccc(C)cc2c(C)c1OC
20,263 to 264 °C,O=C(O)CCC(=O)Nc1ccc(N2CCN(c3ccncc3)CC2)cc1
21,234 °C,COc1ccc2[nH]cc(/C(C#N)=C/c3cccc(C(N)=O)c3)c2c1
22,130 to 132 °C,CC(C(=O)O)c1ccc2c(c1)CC(=O)c1ccccc1S2 (configuration not stated)

row,Structure (SMILES),melting point
1,Nc1ccn(C2CN3CCC2CC3)n1 (configuration not stated),112 to 115 °C
2,CN1C(=O)[C@H](NC(=O)CCc2cccc(C(F)(F)F)c2)N=C(c2ccccc2)c2ccccc21,135 to 136 °C
3,Cc1ncc2n1-c1ccc(Cl)cc1N(c1ccccc1)C(=O)C2,276 to 278 °C
4,CC12CC=C3C(CCC4(CCSc5ncccn5)CC(O)CCC34C)C1CCC2O (configuration not stated),156 °C
5,Cc1cc2cn[nH]c2c(C(=O)NC(C)C)c1NC(=O)c1cc(OCC(F)(F)F)nn1-c1ncccc1Cl,247 to 250 °C
6,CCC1C(c2cccnc2Cl)=NOC1(C)O (configuration not stated),71 °C
7,CCCc1c(C(=O)C(C)C)c2ccc(C(N)=O)cc2n1Cc1ccccc1Cl,85 to 86 °C
8,FC(F)(F)c1ccc(N2CCNCC2)nc1,45 to 47 °C
9,CCCCn1ccc(C(=O)c2cc(C(C)(C)C)c(O)c(C(C)(C)C)c2)c1,101 to 103 °C
10,CN1CCN(Cc2ccc(N)cc2C(F)(F)F)CC1,119 to 121 °C
11,O=c1oc2ccccc2c(O)c1CCC(O)c1ccccc1 (configuration not stated),138 to 140 °C
